Earlier results on 123 compounds are cited in the CATMoS acute toxicity set (Mansouri et al. 2021).

SMILES strings stand for the structures. “And” between values parts separate entries of the source, which are not always exact repeats. Equal values may be shown once.

A short description of this data set: rat acute oral toxicity. Conditions: in vivo.
As for `O=[N+]([O-])c1ccccc1C1OCC(CCl)O1` (stereo not drawn), the LD50 is 65 mg/kg.
`CC(C)(Oc1ccc(CCNC(=O)c2ccc(Cl)cc2)cc1)C(=O)O`: the LD50 is 1080 mg/kg.
`CC(C)CC(C)CC(=O)O` (stereo not drawn): the LD50 was 900 mg/kg.
Take `CCOP(=O)(Oc1ccc([N+](=O)[O-])cc1)SCC` (stereo not drawn): the median lethal dose (LD50) is 17.9 mg/kg.
Consider `O=c1[nH]c2cc(Br)ccc2o1`, for which the LD50 was 1050 mg/kg.
In the case of `CC(C)=CCN1CC[C@@]2(C)c3cc(O)ccc3C[C@@H]1[C@@H]2C` (racemic), the LD50 is 1110 mg/kg.
With `OC[C@@H](O)CN1CCN(c2ccccc2)CC1`, the LD50 is 887 mg/kg.
With `N#CCON=C(C#N)c1ccccc1`, the 50% lethal dose (LD50) was 2280 mg/kg.
`CCNC(=O)/C=C/c1cccc(Br)c1`: the LD50 was 4440 mg/kg.
For the compound `CNC(=O)Oc1ccccc1C1OCCS1` (stereo not drawn), the 50% lethal dose (LD50) was 56 mg/kg.
Regarding `O=C(Cl)c1cccc(S(=O)(=O)Cl)c1`, the LD50 is 1780 mg/kg.
For the compound `CCC12CCC3c4ccc(O)cc4CCC3C1CC(O)C2O` (stereo not drawn), the LD50 is 5010 mg/kg.
Take `COP(=O)(OC)ON1C(=O)c2cccc3cccc(c23)C1=O`: the LD50 is 70 mg/kg.
Turning to `CCCCS`, the LD50 is 1500 mg/kg.
As for `C1CN(CCOCCN2CCOCC2)CCO1`, the LD50 is 2020 mg/kg.
Regarding `COC(=O)CNC[P@](=O)(O)Oc1ccccc1`, the LD50 is 4100 mg/kg.
On to `Cc1cn([C@H]2C=C[C@@H](CO)O2)c(=O)[nH]c1=O`, for which the LD50 is 4000 mg/kg.
Consider `O=C/C=C/O`, for which the LD50 is 824 mg/kg.
For `CCCCC(CC)COC(=O)c1ccccc1C(=O)O` (stereo not drawn), the LD50 is 1340 mg/kg.
Take `CC(C)=CCC/C(C)=C\CO`: the LD50 was 4500 mg/kg.
For `CC1=CCC(=O)O1`, the LD50 is 3900 mg/kg.
Consider `Cc1c(Cl)c(Br)c(Cl)c2[nH]c(C(F)(F)F)nc12`, for which the LD50 was 18.3 mg/kg.
In the case of `CNCCON=C1c2ccccc2CCc2ccccc21`, the LD50 was 860 mg/kg.
For `CCCC(C)OP(=S)(OC)OC` (stereo not drawn), the LD50 was 311 mg/kg.
As for `CCOC(=O)C(Br)CBr` (stereo not drawn), the 50% lethal dose (LD50) was 240 mg/kg.
Take `CCOC(=O)C1OC1(C)c1ccccc1` (stereo not drawn): the LD50 is 5470 mg/kg.
Consider `COP(=O)(OC)OC(=CCl)c1cc(Cl)ccc1Cl`, for which the LD50 was 3790 mg/kg.
For `CCCCCCCCOC(C[n+]1ccccc1)c1ccc(C2CCCC2)cc1` (stereo not drawn), the LD50 is 250 mg/kg.
As for `OC1CCN(c2ccc(-c3ccc(Cl)cc3Cl)nn2)CC1`, the LD50 was 300 mg/kg.
As for `NC(=S)c1c(Cl)cccc1Cl`, the LD50 is 757 mg/kg.
As to `OP(OCCCl)OCCCl`, the LD50 was 260 mg/kg.
With `O=C1OC(=O)c2ccc(Cl)c3cccc1c23`, the LD50 was 3460 mg/kg.
As to `CCCCOCCOCCOCCCC`, the LD50 was 3900 mg/kg.
Turning to `CC(=O)OC(OC(C)=O)C(Cl)CCl` (stereo not drawn), the LD50 is 320 mg/kg.
With `CCCCCCCCCCCCN`, the LD50 was 1020 mg/kg.
In the case of `C[C@H]1CC[C@@H]2[C@@H](C)[C@H]3[C@H](C[C@H]4[C@@H]5CC=C6CC(O[C@@H]7O[C@H](CO)[C@H](O)[C@H](O[C@@H]8O[C@H](CO)[C@@H](O)[C@H](O)[C@H]8O)[C@H]7O[C@H]7O[C@@H](C)[C@H](O)[C@@H](O)[C@H]7O)CC[C@]6(C)[C@H]5CC[C@]34C)N2C1` (stereo partly drawn), the LD50 was 590 mg/kg.
Regarding `CC(=O)OCOC(=O)C1=C(COC(N)=O)SC2C(C(C)O)C(=O)N12` (stereo not drawn), the LD50 is 7230 mg/kg.
For `CC(CC1c2ccccc2CCc2ccccc21)CN(C)C` (stereo not drawn), the 50% lethal dose (LD50) is 700 mg/kg.
Regarding `CC(=O)OCC=Cc1ccccc1`, the LD50 is 3300 mg/kg.
Regarding `CC(C)Cc1ccc(C(C)C(=O)O)cc1` (stereo not drawn), the LD50 was 636 mg/kg.
With `NCCOS(N)(=O)=O`, the LD50 is 7460 mg/kg.
`O=C1C=Cc2cc(Br)ccc2C1=O`: the LD50 was 3900 mg/kg.
For the compound `CCOP(=O)(OCC)Oc1ccc2c(C)c(Cl)c(=O)oc2c1`, the 50% lethal dose (LD50) was 10 mg/kg.
On to `C=CCC(CCN(CC)CC)(C(=O)OCC)c1ccccc1` (stereo not drawn), for which the LD50 is 200 mg/kg.
Turning to `CC(=O)O[C@H]1C[C@@H]2CC[C@@H]3[C@H](CC[C@@]4(C)[C@H]3C[C@H]([N+]3(C)CCCCC3)[C@@H]4OC(C)=O)[C@@]2(C)C[C@@H]1N1CCCCC1`, the LD50 is 455 mg/kg.
For the compound `Cc1c2ccccc2c(C)c2c1ccc1ccccc12`, the LD50 was 327 mg/kg.
As for `O=C1NCc2ccccc2O1`, the LD50 is 1050 mg/kg.
As to `CCOc1occ2cnc(C)c(O)c12`, the LD50 is 2150 mg/kg.
For `COc1ccc(OC)c2[nH]c(C(F)(F)F)nc12`, the LD50 was 60 mg/kg.
As for `O=C(CCl)c1ccc(O)cc1`, the LD50 was 230 mg/kg.
Consider `CBr`, for which the LD50 is 214 mg/kg.
As to `CC/C(=C(\c1ccccc1)c1ccc(OCCN(C)C)cc1)c1ccccc1`, the LD50 was 4100 mg/kg.
On to `CCC(=O)C(C)=O`, for which the LD50 was 3000 mg/kg.
Consider `CC(CCN(C)C)N(C)C` (stereo not drawn), for which the median lethal dose (LD50) was 750 mg/kg.
With `CCCCN(CCCC)CCCN`, the LD50 was 820 mg/kg.
`O=[N+]([O-])C(Br)(Br)CO`: the LD50 was 29.1 mg/kg.
For the compound `CSC#N`, the LD50 is 60 mg/kg.
As for `COP(=S)(NC(C)C)Oc1ccc(C)cc1[N+](=O)[O-]` (stereo not drawn), the LD50 is 309 mg/kg.
Take `COc1ccccc1OCC(O)CO` (stereo not drawn): the LD50 was 1510 mg/kg.
Turning to `Cc1cn[nH]c1`, the LD50 was 534 mg/kg.
Take `CC(C)(C=O)CO`: the LD50 is 3200 mg/kg.
Turning to `CC1C2Cc3ccc(O)cc3C1(C)CCN2CCc1ccccc1` (stereo not drawn), the LD50 was 90 mg/kg.
`Nc1ccc(O)c(C(=O)O)c1`: the LD50 is 2800 mg/kg.
Turning to `CC(Cl)CCC(C)Cl` (stereo not drawn), the LD50 was 4000 mg/kg.
Consider `CCCCCCOC(C)=O`, for which the LD50 was 42000 mg/kg.
Consider `CCCCCCCC/C=C\CCCCCCCC(=O)NCC[N+]1(C)CCN=C1CCCCCCC/C=C\CCCCCCCC` (stereo not drawn), for which the LD50 was 24400 mg/kg.
Turning to `Fc1ccc(Br)c(F)c1`, the LD50 was 300 mg/kg.
Take `CN1CC[C@@]23CCCC[C@@H]2[C@@H]1Cc1ccc(O)cc13`: the LD50 was 1100 mg/kg.
As for `Fc1c(Cl)ccc2[nH]c(C(F)(F)F)nc12`, the LD50 was 5.72 mg/kg.
Turning to `O=[N+]([O-])c1ccc(Cl)c2nc(C(F)(F)F)[nH]c12`, the LD50 was 11.1 mg/kg.
As for `CCCCCCCCCCCCC(Br)C(=O)O` (stereo not drawn), the LD50 was 800 mg/kg.
As to `COc1c(OC)c(Cl)c2[nH]c(C(F)(F)F)nc2c1Cl`, the 50% lethal dose (LD50) is 100 mg/kg.
Turning to `Cc1ccc(OP(=O)(Oc2ccc(C)cc2)Oc2ccc(C)cc2)cc1`, the LD50 is 12800 mg/kg.
As for `O=[N+]([O-])c1cccc(S(=O)(=O)O)c1`, the LD50 was 11000 mg/kg.
For the compound `CN(C)CCCOC1(Cc2ccccc2)CCCCCC1`, the LD50 was 414 mg/kg.
As for `CCOP(=O)(Oc1ccc(Cl)cc1Cl)Oc1ccc(Cl)cc1Cl`, the LD50 was 6200 mg/kg.
Regarding `CCN(CC)S(=O)(=O)CCNC(=O)N(CCCl)N=O`, the LD50 is 60 mg/kg.
`COc1c(OP(=S)(OCC(C)C)OCC(C)C)cnn(C)c1=O`: the LD50 was 135 mg/kg.
`CC(=O)C(c1ccccc1)N1CCN(CCOc2ccccc2)CC1` (stereo not drawn): the LD50 is 800 mg/kg.
`CCCCCCCCOC(C[n+]1ccccc1)c1ccc(C(C)(C)C)cc1` (stereo not drawn): the LD50 was 250 mg/kg.
Consider `Cc1cccc(CN(C)N=O)c1`, for which the LD50 was 600 mg/kg.
Turning to `COc1ccc(Cc2nccc3cc(OC)c(OC)cc23)cc1OC`, the LD50 was 68.8 mg/kg.
Turning to `NC(=S)Nc1ccccc1`, the LD50 is 3 mg/kg.
With `C=CN`, the LD50 is 1850 mg/kg.
With `CC(C)COCCO`, the LD50 was 400 mg/kg.
In the case of `O=C(NO)Nc1ccc(Cl)c(Cl)c1`, the LD50 is 1850 mg/kg.
With `CC(C)NNC(=O)c1ccncc1`, the median lethal dose (LD50) is 365 mg/kg.
In the case of `C=CC(O)CC#N` (stereo not drawn), the LD50 was 200 mg/kg.
For `CCCC(Cc1ccccc1)N1CCCC1` (stereo not drawn), the LD50 is 278 mg/kg and 157 mg/kg.
In the case of `C[N+](C)(C)CCOP(=O)(O)OP(=O)(O)OC[C@H]1O[C@@H](n2ccc(N)nc2=O)[C@H](O)[C@@H]1O`, the median lethal dose (LD50) is 18500 mg/kg.
Turning to `CCOC(=O)CN1CCN(C(=O)C=Cc2cc(OC)c(OC)c(OC)c2)CC1`, the LD50 was 4190 mg/kg.
Regarding `CC1CCC(=O)CC1`, the median lethal dose (LD50) was 800 mg/kg.
Turning to `S=C1NCCC(COc2ccccc2)O1` (stereo not drawn), the LD50 is 2200 mg/kg.
For the compound `O=C1OC(=O)c2ccc3c4c(ccc1c24)C(=O)OC3=O`, the LD50 is 7400 mg/kg.
In the case of `CCCCOC(=O)c1ccccc1C(=O)OCc1ccccc1`, the LD50 was 2330 mg/kg.
`CNC(=O)Oc1ccc(NC(C)=O)cc1`: the median lethal dose (LD50) was 794 mg/kg.
`CN(C)CCNc1ncnc2ccccc12`: the LD50 was 670 mg/kg.
With `O=NN1CCCCCCC1`, the LD50 was 283 mg/kg.
With `CCC(C)C(C(=O)OCC[N+](C)(CC)CC)c1ccccc1` (stereo not drawn), the LD50 was 1260 mg/kg.
Consider `NCCNc1ccc(N)cc1`, for which the LD50 was 190 mg/kg.
`CCCC(=O)NP(=O)(OC)SC` (stereo not drawn): the LD50 was 125 mg/kg.
`C=CC(Cl)=C(Cl)Cl`: the LD50 is 680 mg/kg.
Consider `Nc1ccc2cc(S(=O)(=O)O)cc(O)c2c1N=Nc1ccc(-c2ccc(N=Nc3ccc(O)c(C(=O)O)c3)cc2)cc1`, for which the LD50 was 22400 mg/kg.
For `CCC(C)c1ccccc1` (stereo not drawn), the LD50 is 2240 mg/kg.
Regarding `Nc1ccc(N=Nc2ccccc2)cc1`, the median lethal dose (LD50) is 1250 mg/kg.
For `Cc1nc2n(c(=O)c1CCN1CCC(c3noc4cc(F)ccc34)CC1)CCCC2`, the LD50 is 56.6 mg/kg.
Consider `C=C(C)C(=O)OCC`, for which the LD50 is 14800 mg/kg.
Take `CC1CN(CCO)CC1C` (stereo not drawn): the LD50 was 1230 mg/kg.
For `O[C@H]([C@H](O)[C@@H]1CO1)[C@H]1CO1` (racemic), the LD50 was 14 mg/kg.
In the case of `FC(F)(F)c1nc2c(Br)c(Cl)c(Cl)cc2[nH]1`, the LD50 is 2.21 mg/kg.
`CCCN(N=O)C(N)=O`: the LD50 was 480 mg/kg.
As for `CC1=C(C(=O)OCCN2CCN(C(c3ccccc3)c3ccccc3)CC2)C(c2cccc([N+](=O)[O-])c2)C(P2(=O)OCC(C)(C)CO2)=C(C)N1` (stereo not drawn), the LD50 is 194 mg/kg.
As to `CN(C)CCCn1c2ccccc2c(=O)c2c([N+](=O)[O-])cccc21`, the 50% lethal dose (LD50) is 53.3 mg/kg.
Regarding `CC(C)c1ccc2oc3nc(N)c(C(=O)O)cc3c(=O)c2c1`, the LD50 is 10000 mg/kg.
On to `N#CCCC1(CCC#N)c2ccccc2-c2ccccc21`, for which the LD50 was 2180 mg/kg.
On to `Clc1ccc(COC(Cn2ccnc2)c2ccc(Cl)cc2Cl)cc1` (stereo not drawn), for which the LD50 was 668 mg/kg.
Regarding `CCN(CC)CCOc1ccc2c(c1)C(=O)c1cc(OCCN(CC)CC)ccc1-2`, the LD50 was 852 mg/kg.
Turning to `COC(C)=NC#N`, the median lethal dose (LD50) was 432 mg/kg.
Regarding `CN1C(=O)CCS(=O)(=O)C1c1ccc(Cl)c(Cl)c1` (stereo not drawn), the LD50 was 1050 mg/kg.
For `OCCNCCc1ccccc1`, the median lethal dose (LD50) is 1870 mg/kg.
In the case of `O=C(O)c1ccccc1OP(=O)(O)O`, the LD50 is 1100 mg/kg.
In the case of `CCOC(=O)[C@H](CCc1ccccc1)N[C@@H](C)C(=O)N1Cc2ccccc2C[C@H]1C(=O)O`, the 50% lethal dose (LD50) is 3540 mg/kg.
With `CCC1(CC)C(=O)N=C(O)NC1=O`, the LD50 was 600 mg/kg.

Usually LD50 stands for the dose expected to kill half of the subjects tested.
